The values below are quoted from earlier work in patent EP2397122A2, “Formulations of neramexane dosage forms” (Merz Pharma GmbH & Co. KGaA, priority 2004, dated 2006).

With `CC12CC3CC(C)(C1)CC(N)(C3)C2` [memantine, 1-amino-3,5-dimethyladamantane], under “man”, the “elimination half-life (T½)” value is 60 to 80 h. The absolute bioavailability entry (oral administration in man) was “approximately 100%”.
